Data set [1] relates to control and X-ALD patient fibroblasts. Briefly: Pulse-chase degradation of long-lived proteins in fibroblasts treated with VLCFA. It is filed as cell-based, human. The following applies: C26:0 50 μM 24 h, high proteolysis medium; for inhibition at 50 µM: Homo sapiens, Fibroblast, control fibroblasts. As for the experimental part:
(§1) Skin biopsies to prepare fibroblasts were collected according to the institutional guidelines for sampling, including informed consent from the persons involved or their representatives. Primary human fibroblasts were cultured in DMEM (containing 10% fetal bovine serum, 100 U/ml penicillin and 100 μg streptomycin) at 37° C. in humidified 5% CO2/95% air. Unless otherwise stated, experiments were carried out with cells at 80% confluence. For starvation conditions (high proteolysis medium, H), cells were switched, after washing, from full growth medium (see above, low proteolysis medium, L) to Krebs-Henseleit medium (118.4 mM NaCl, 4.75 mM KCl, 1.19 mM KH2PO4, 2.54 mM MgSO4, 2.44 mM CaCl2.2H2O, 28.6 mM NaHCO3, 10 mM glucose) containing 10 mM Hepes, pH 7.4 (high proteolysis medium, H) and incubated for 4 h or less at 37° C.
For pulse-chase experiments, human control and X-ALD patient fibroblasts were incubated for 48 h in fresh full medium with 1 μCi/ml [3H]valine (Hartmann Analytic Gmbh), followed by a 24 h chase in fresh full medium containing 10 mM L-valine to degrade short-lived proteins. Then, all cultures were incubated for the indicated times in Krebs-Henseleit medium with 10 mM Hepes, pH 7.4, containing 10 mM valine and the indicated additions. Protein degradation, which was analysed 1 h later to ensure maximal effects of the various additions and for only 3 h to avoid possible secondary effects, was calculated at two intervals of 1.5 h by measuring the net release of trichloroacetic acid-soluble radioactivity from the labelled cells into the culture medium and expressed as percentage of protein degraded. The contribution of lysosomal degradation to total protein degradation was calculated using 20 mM NH4Cl (Sigma-Aldrich) plus 100 μM leupeptin (Peptide Institute), as previously described (Fuertes G, et al, 2003, Biochem J 375, 75-86).
In X-ALD, VLCFA accumulate. The effect of the addition of an excess of hexacosanoic acid to fibroblasts isolated from controls and X-ALD patients was tested. First, the degradation of intracellular proteins was analyzed to determine if it was any alteration in control and X-ALD fibroblasts upon addition of an excess of VLCFA, by analyzing in pulse-chase experiments the degradation of long-lived proteins under starvation. Total protein degradation and also, separately, lysosomal protein degradation were estimated by procedures previously described (Fuertes G, et al, 2003, Biochem J 375, 75-86).

In data set [2] the test system is control and X-ALD fibroblasts. In words: Immunoblot of LC3-II and p62 in fibroblasts treated or not with VLCFA. The following applies: excess of VLCFA. Format: cell-based, human. The procedure:
as §1
(§2) Tissues were removed from euthanized mice and flash-frozen on liquid nitrogen. Frozen tissues and human fibroblasts samples were homogenized in RIPA buffer (Cell Signaling Technology) using a motor-driven grinder (Sigma-Aldrich), and then sonicated for 2 min at 4° C. in an Ultrasonic processor UP50H (Hielscher-Ultrasound Technology). Samples were subjected to polyacrylamide (10% acrylamide) gel electrophoresis for 60 min at […]. Resolved proteins were transferred onto nitrocellulose membranes and proteins were detected with ECL Western blotting analysis system followed by exposure to CL-XPosure Film (Thermo Scientific). Autoradiographs were scanned and quantified using a GS800 Densitometer (Bio-Rad).
Then, the LC3-II and p62 levels in cell extracts from control and X-ALD fibroblasts treated or not with VLCFA were determined by immunoblot analysis.
Background: A western blot detects proteins with antibodies after separation by electrophoresis.

For data set [3] the following is noted: cited from earlier work.
Data set [4] concerns Abcd1−/− mouse spinal cord. In words: Western blot of autophagy markers LC3-II and p62 in spinal cord of treated Abcd1−/− mice. Format: in vivo. The following applies: temsirolimus 20 mg/kg i.p. three times a week, 3 months with rest periods. The text has this:
(§3) All methods employed in this study were in accordance with the Guide for the Care and Use of Laboratory Animals published by the US National Institutes of Health (NIH publication No. 85-23, revised 1996) and the ethical committees of IDIBELL and the Generalitat de Catalunya. The generation and genotyping of Abcd1 null mice have been previously described. Mice used for experiments were on a pure C57BL/6J background. Abcd1 null and wild type mice were separated into control and treated groups. Temsirolimus (LC laboratories) was administered by intraperitoneal injections three times a week at a dose of 20 mg/kg for 3 months with alternate 3-weeks rest periods between each month of treatment. Control mice were given a placebo injection containing buffer only with the same frequency. Treadmill test was carried out exactly as previously described (López-Erauskin J, et al, 2011, Ann Neurol 70, 84-92). The latency to falling off the belt (time of shocks in seconds) and the number of received shocks were measured. […]
(§4) Tissues were removed from euthanized mice and flash-frozen on liquid nitrogen. […] Resolved proteins were transferred onto nitrocellulose membranes and proteins were detected with ECL Western blotting analysis system followed by exposure to CL-XPosure Film (Thermo Scientific). Autoradiographs were scanned and quantified using a GS800 Densitometer (Bio-Rad).

The test system of a further data set is mTOR. In words: p70S6K phosphorylation (mTOR activity) by Western blot in spinal cord of treated Abcd1−/− mice. It is filed as in vivo, mouse. The following applies: temsirolimus 20 mg/kg i.p. three times a week, 3 months with rest periods.
Source text: as §3, §4

A further data set relates to Abcd1 null mice. In words: Dose tests of temsirolimus in Abcd1 null mice (body response, weight). Format: in vivo, mouse. From the text: (§5) All methods employed in this study were in accordance with the Guide for the Care and Use of Laboratory Animals published by the US National Institutes of Health (NIH publication No. 85-23, revised 1996) and the ethical committees of IDIBELL and the Generalitat de Catalunya. The generation and genotyping of Abcd1 null mice have been previously described. Mice used for experiments were on a pure C57BL/6J background. Abcd1 null and wild type mice were separated into control and treated groups. Temsirolimus (LC laboratories) was administered by intraperitoneal injections three times a week at a dose of 20 mg/kg for 3 months with alternate 3-weeks rest periods between each month of treatment. Control mice were given a placebo injection containing buffer only with the same frequency. Treadmill test was carried out exactly as previously described (López-Erauskin J, et al, 2011, Ann Neurol 70, 84-92). The latency to falling off the belt (time of shocks in seconds) and the number of received shocks were measured. Bar cross test was performed as previously described (López-Erauskin J, et al, 2011, Ann Neurol 70, 84-92). Placebo and drug treated mice within each litter were tested on the treadmill simultaneously and at the time of testing were not identified as to their treatment status.
10 month-old Abcd1 null mice were treated with temsirolimus, or vehicle (control), administered by intraperitoneal injection as described previously. Doses tests in order to check mice's body response was firstly performed. […] Thus, to prevent side effects other treatment conditions: intraperitoneal injections of temsirolimus for 3 months with alternate 3-weeks rest periods between each month of treatment, were tested.

Data set [5] concerns Abcd1−/− mouse spinal cord. In words: Oxidized proteins, ATP levels, proteasome activity and immunoproteasome subunits in spinal cord of temsirolimus-treated Abcd1−/− mice. To be noted: temsirolimus 20 mg/kg i.p. Format: in vivo.
Source text: as §5
Total RNA was isolated from homogenized spinal cord using the RNeasy mini kit (Qiagen), according to the manufacturer's instructions. RNA samples with RNA Integrity Number (RIN) above 8 and 28S/18S ratio higher than 1 were used for the experiments. Then, first strand cDNA was synthesized for each RNA sample using Superscript II reverse transcriptase (Invitrogen) and random primers. The expression of the candidate proteasome genes was analysed by RQ-PCR using TaqMan® Gene Expression Assays (Applied Biosystems).
Relative quantitation was carried out using the ‘Delta-Delta Ct’ (ΔΔCt) method with tubby RNA as endogenous control. Transcript quantification was performed in duplicate for each sample.
as §2
ATP levels were measured as previously described (Galino J, et al 2011, Antioxid Redox Signal 15, 2095-2107). For proteasome activity assays, tissues were homogenized in an ice-cold buffer (50 mM Tris-HCl pH 7.5, 1 mM dithiothreitol, 0.25 M sucrose, 5 mM MgCl2, 0.5 mM EDTA with 2 mM ATP), using a teflon-on-glass homogenizer, and centrifuged at 12,000×g for 10 min. Chymotrypsin-like activity of proteasomes was determined as described (Launay N, et el, 2013 Brain 136, 891-904), using Suc-LLVY-AMC as substrate. […] The free AMC fluorescence was quantified with a fluorescence multiplate FLUOstar OPTIMA FL reader (BMG) with excitation and emission wavelengths at 380 and 460 nm, respectively. […] All reactions were carried out in duplicate and readings were calibrated using standard solutions of the fluorophores.

Data set [6] concerns Abcd1−/−/Abcd2−/− mice. Briefly: Immunohistochemistry of axonal degeneration markers in spinal cord of Abcd1−/−/Abcd2−/− mice. Format: in vivo, mouse.
Source text: as §5
Spinal cords were harvested from 20-month-old mice (wild type, Abcd1−/−/Abcd2−/− and Abcd1−/−/Abcd2−/− treated with temsirolimus), after perfusion with 4% paraformaldehyde and prepared and incubated for immunohistochemistry as described (López-Erauskin J, et al, 2011. Ann Neurol 70, 84-92).

The subject of data set [7] is Abcd1−/−/Abcd2−/− mice. Briefly: Treadmill test. To be noted: Abcd1−/−/Abcd2−/− mice at 20 months of age. Format: in vivo, mouse.
The test system of data set [8] is Abcd1−/−/Abcd2−/− mice. In words: Bar cross test. Format: in vivo, mouse. To be noted: Abcd1−/−/Abcd2−/− mice at 20 months of age.
[9] abbreviates: intraperitoneal injections for 3 months with alternate 3-weeks rest periods between each month.
Setting [10] is: RT-PCR, Abcd1−/− mouse spinal cord.
[11] abbreviates: spinal cord, 20-month-old Abcd1−/−/Abcd2−/− mice, to control levels.
Setting [12] is: spinal cord, Abcd1−/−/Abcd2−/− mice, to control levels, data not shown.

Structures are written as SMILES. Where two headings read alike, the source gives them in different places.

For `CCCCCCCCCCCCCCCCCCCCCCCCCC(=O)O` [VLCFA, Hexacosanoic acid], the inhibition at 50 µM in data set [1] (read-out: inhibition of lysosomal degradation of long-lived proteins) was ~40%. Moreover, in data set [1] (read-out: inhibition of total degradation of long-lived proteins), the inhibition at 50 µM is ~15%. In [1] (X-ALD fibroblasts), the “inhibition of lysosomal degradation of long-lived proteins” value is “no significant inhibitions” and the “inhibition of total degradation of long-lived proteins” value is reported as “no significant inhibitions”. In [2] (X-ALD fibroblasts), the LC3-II levels entry is given as “no significant differences” and the p62 levels result is recorded as “no significant differences”. In data set [2] (control fibroblasts), the LC3-II levels result is on record as “marked decrease” and the p62 levels result is recorded as “increase”.
For the compound `CO[C@H]1C[C@@H]2CC[C@@H](C)[C@@](O)(O2)C(=O)C(=O)N2CCCC[C@H]2C(=O)O[C@H]([C@H](C)C[C@@H]2CC[C@@H](O)[C@H](OC)C2)CC(=O)[C@H](C)/C=C(\C)[C@@H](O)[C@@H](OC)C(=O)[C@H](C)C[C@H](C)/C=C/C=C/C=C/1C` [rapamycin], in data set [3], the water solubility entry is “poor”.
Regarding `CO[C@H]1C[C@@H]2CC[C@@H](C)[C@@](O)(O2)C(=O)C(=O)N2CCCC[C@H]2C(=O)O[C@H]([C@H](C)C[C@@H]2CC[C@@H](OC(=O)C(C)(CO)CO)[C@H](OC)C2)CC(=O)[C@H](C)/C=C(\C)[C@@H](O)[C@@H](OC)C(=O)[C@H](C)C[C@H](C)/C=C/C=C/C=C/1C` [temsirolimus, (3S,6R,7E,9R,10R,12R, 14S,15E,17E,19E,21S,23S,26R,27R,34aS)-9,10,12,13,14,21,22,23,24,25,26,27,32,33,34,34a-Hexa deca hydro-9,27-dihydroxy-3-[(1R)-2-[1S,3R,4R)-4-hydroxy-3-methoxycyclohexyl]-10,21-dimethoxy-6,8,12,14,20,26-hexa meth 3H-pyrido [2,1-][1,4]oxa azaclo hentriacontine-1,5,11,28,29(4H,6H,31H)-pentone 4′-[2,2-bis (hydroxymethyl)propionate]], in data set [4], the LC3-II levels result is “up-” and the p62 levels entry is “down regulated”. Besides, in the data set with mTOR, the “immunoreactivity for total p70S6K” value is recorded as “did not change” and the “phosphorylated p70S6K” value is “decrease”. Besides, the body weight entry with Abcd1 null mice (continuous administration during 3 months, intraperitoneal, data not shown) is reported as “important weight losses”. Further, in the data set with Abcd1 null mice (setting [9]), the body weight result is recorded as “without significant weight loss” and the locomotor performances result is “better”. Further, the chymotrypsin-like proteasome activity entry in data set [5] (Abcd1−/− mouse spinal cord lysates) is “normalized”. For the same compound, in data set [5] (Abcd1−/− mouse spinal cord), the ATP levels result is reported as “normalizing” and the “levels of oxidized proteins” value is “reduced considerably”. In data set [5] (setting [10]), the “induction of immunoproteasome subunit β1i/LMP2” value is on record as “prevented the induction” and the “induction of immunoproteasome subunit β5i/LMP7” value is recorded as “prevented the induction”. Further, in the data set on Abcd1−/−/Abcd2−/− mice [6] (XALD mice), the “motor neurons health in spinal cord” value is recorded as “improve”. In addition, in the data set on Abcd1−/−/Abcd2−/− mice [6] (setting [11]), the “accumulation of APP (axonal damage marker)” value was “reduced” and the “accumulation of synaptophysin (axonal damage marker)” value is listed as “reduced”. Further, in the data set on Abcd1−/−/Abcd2−/− mice [6] (setting [12]), the DNA oxidation result is given as “reduced”, the “number of reactive astrocytes” value was “reduced” and the “number of reactive microglia” value was “reduced”. Besides, the “ratio between the time length of the shocks and the number of shocks” value in the data set with Abcd1−/−/Abcd2−/− mice [7] is listed as “normalized”. Further, in the data set on Abcd1−/−/Abcd2−/− mice [8], the number of slips entry was “normalized” and the “time needed to cross the bar” value is recorded as “normalized”.

One may read the inhibition as the relative decrease from the control value, in per cent.

Source of the values: US10071063B2, “Specific mTOR inhibitors in the treatment of X-linked adrenoleukodystrophy” (FUNDACIÓN DE LA COMUNIDAD VALENCIANA CENTRO DE …, priority 2014, dated 2018).
